Results from patent publication US9624228B2, “Inhibitors of ERK and methods of use” (KURA ONCOLOGY, INC., priority 2013, dated 2017).

Target: ERK2 enzyme (Homo sapiens (Human), UniProt P28482)
Assay: Inhibition assay of ERK (Z'-LYTE kinase assay, Ser/Thr 3 peptide substrate)
Format: biochemical
Conditions: 100 μM ATP
Protocol: The inhibition of ERK activity by the compounds disclosed herein was determined using the Z′-LYTE kinase assay kit (Life Technologies) with a Ser/Thr 3 peptide substrate (Life Technologies) according to manufacturers' instructions. […] The IC50 values for the compounds were determined with 3-fold serial dilutions in duplicate. […] The final DMSO concentration in the assay was 1%. Final reaction volume was 20 μL/well in 384-well plates. Kinase reactions were conducted or 1 hour followed by the assay development reaction (1 hour) in a 20 ul/well in a 384 well plate format.

[1] = In vitro, ERK2 enzyme 0.47 ng/μL

ERK2 enzyme, sequence (P28482 whole entry): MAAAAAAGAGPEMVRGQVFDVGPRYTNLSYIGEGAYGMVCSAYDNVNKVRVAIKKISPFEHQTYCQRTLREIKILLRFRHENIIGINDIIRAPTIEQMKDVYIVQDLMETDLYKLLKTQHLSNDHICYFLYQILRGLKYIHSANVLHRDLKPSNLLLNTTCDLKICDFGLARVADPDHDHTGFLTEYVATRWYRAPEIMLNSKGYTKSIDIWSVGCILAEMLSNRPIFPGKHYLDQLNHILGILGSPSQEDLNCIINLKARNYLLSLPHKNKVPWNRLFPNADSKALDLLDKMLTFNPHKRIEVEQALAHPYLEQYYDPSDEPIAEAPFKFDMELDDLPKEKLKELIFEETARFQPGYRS

Row | IC50 [1] [nM] | IC50 (In vitro ERK2 enzyme) [nM] | SMILES
1 | < 50 |  | Cc1cc(-c2n[nH]c3cc4c(cc23)CN(Cc2cc(F)cc(F)c2)C(=O)N4)cc(C)n1 [Compound 225]
2 |  | < 50 | O=C1Nc2cc3[nH]nc(-c4ccnnc4)c3cc2CN1[C@@H]1CCCN(Cc2ccccc2)C1 [Compound 120]
3 | < 50 |  | Cc1cc(-c2n[nH]c3cc4c(cc23)CN([C@@H]2CCCN(c3ccc(F)cn3)C2)C(=O)N4)ccn1 [Compound 199]
4 |  | < 50 | Cc1cc(-c2n[nH]c3cc4c(cc23)CN(Cc2ccc(F)c(Cl)c2)C(=O)N4)ccn1 [Compound 8]
5 | 50 to 250 |  | Cc1cc(-c2n[nH]c3cc4c(cc23)CN([C@@H]2CN(CC(F)(F)F)C[C@H]2c2ccccc2F)C(=O)N4)ccn1 (racemic) [Compound 311]
6 |  | < 50 | Cc1cc(-c2n[nH]c3cc4c(cc23)CN([C@@H]2CCCN(Cc3ccc(Cl)cc3)C2)C(=O)N4)ccn1 [Compound 159]
7 |  | < 50 | COc1ncccc1CN1CCC[C@@H](N2Cc3cc4c(-c5ccnc(C)c5)n[nH]c4cc3NC2=O)C1 [Compound 150]
8 | < 50 |  | Cc1cc(-c2n[nH]c3cc4c(cc23)CN(Cc2ccccc2)C(=O)N4)cc(C)n1 [Compound 229]
9 | < 50 |  | Cc1cc(-c2n[nH]c3cc4c(cc23)CN([C@@H]2CCCN(CC(=O)C(C)(C)C)C2)C(=O)N4)ccn1 [Compound 203]
10 |  | 50 to 250 | Cc1cc(-c2n[nH]c3cc4[nH]c(=O)c(C(C)C5CCCCC5)cc4cc23)ccn1 (stereo not drawn) [Compound 160]
11 |  | < 50 | Cc1cc(-c2n[nH]c3cc4c(cc23)CN([C@@H]2CCCN(Cc3cccnc3C(F)(F)F)C2)C(=O)N4)ccn1 [Compound 161]
12 |  | < 50 | Cc1cc(-c2n[nH]c3cc4c(cc23)CN([C@@H]2CCCN(Cc3c(F)cccc3F)C2)C(=O)N4)ccn1 [Compound 143]
13 | < 50 |  | Cc1cc(-c2n[nH]c3cc4c(cc23)CN(C(C)C2CCOCC2)C(=O)N4)ccn1 (stereo not drawn) [Compound 262]
14 |  | 250 to 1000 | Cc1cc(-c2n[nH]c3cc4c(cc23)CN(CCc2ccc(F)cc2)CC(=O)N4)ccn1 [Compound 67]
15 |  | < 50 | Cn1cc(-c2n[nH]c3cc4c(cc23)CN(Cc2ccc(F)c(Cl)c2)C(=O)N4)ccc1=O [Compound 41]
16 | < 50 |  | Cc1cc(-c2n[nH]c3cc4c(cc23)CN([C@H]2CCN(CC(F)(F)F)C2)C(=O)N4)ccn1 [Compound 299]
17 | < 50 |  | CC(c1ccccc1)c1cc2cc3c(-c4ccc(=O)n(C)c4)n[nH]c3cc2[nH]c1=O (stereo not drawn) [Compound 347]
18 |  | < 50 | Cc1cc(-c2n[nH]c3cc4c(cc23)CN([C@@H]2CCCN(Cc3cc(F)cc(F)c3)C2)C(=O)N4)ccn1 [Compound 163]
19 |  | 50 to 250 | Cc1cc(-c2n[nH]c3cc4c(cc23)CN(C2CCN(CC3CC3)CC2)C(=O)N4)ccn1 [Compound 69]
20 |  | 50 to 250 | Cc1cc(-c2n[nH]c3cc4c(cc23)CN([C@@H]2CCCN(C3CCCCC3)C2)C(=O)N4)ccn1 [Compound 194]
21 |  | < 50 | Cc1cc(-c2n[nH]c3cc4[nH]c(=O)c(C(C)c5ccccc5)cc4cc23)ccn1 (stereo not drawn) [Compound 22]
22 |  | < 50 | COCCN1Cc2cc3c(-c4ccnc(C)c4)n[nH]c3cc2NC1=O [Compound 52]
23 |  | 50 to 250 | Cc1cc(-c2n[nH]c3cc4c(cc23)CN(CCN(C)C)C(=O)N4)ccn1 [Compound 46]

Row | IC50 [1] [nM] | IC50 (In vitro ERK2 enzyme) [nM] | SMILES
24 |  | 50 to 250 | O=C1Nc2cc3[nH]nc(-c4ccc(F)cc4)c3cc2CN1Cc1ccc(F)c(Cl)c1 [Compound 40]
25 | < 50 |  | COc1cc(-c2n[nH]c3cc4c(cc23)CN([C@@H]2CCCN(Cc3ccccc3)C2)C(=O)N4)ccn1 [Compound 270]
26 |  | < 50 | Cc1cc(-c2n[nH]c3cc4c(cc23)CN([C@@H]2CCCN(CC3CC5CCC3C5)C2)C(=O)N4)ccn1 (stereo partly drawn) [Compound 142]
27 | < 50 |  | Cc1cc(-c2n[nH]c3cc4c(cc23)CN(Cc2cccc(C(F)(F)F)c2)C(=O)N4)ccn1 [Compound 240]
28 | < 50 |  | Cc1cc(-c2n[nH]c3cc4c(cc23)CN([C@H]2CN(Cc3ccccc3)CC(F)(F)C2)C(=O)N4)ccn1 [Compound 264]
29 | < 50 |  | CC(c1ccccc1)c1cc2cc3c(NC4CCOCC4)n[nH]c3cc2[nH]c1=O (stereo not drawn) [Compound 338]
30 |  | < 50 | COc1ccc(-c2n[nH]c3cc4c(cc23)CN(Cc2ccc(F)cc2)C(=O)N4)cn1 [Compound 76]
31 | < 50 |  | Cc1cc(-c2n[nH]c3cc4c(cc23)CN([C@@H]2CN(CC(F)(F)F)C[C@H]2c2ccccc2)C(=O)N4)ccn1 [Compound 304]
32 |  | < 50 | O=C1Nc2cc3[nH]nc(-c4cn[nH]c4)c3cc2CN1Cc1ccc(F)c(Cl)c1 [Compound 48]
33 |  | < 50 | Cc1cc(-c2n[nH]c3cc4c(cc23)CN(Cc2cc(F)cc(F)c2)C(=O)N4)ccn1 [Compound 7]
34 | 50 to 250 |  | COc1ncc(-c2n[nH]c3cc4c(cc23)CN([C@H]2CCCN(Cc3ccccc3)C2)C(=O)N4)cn1 [Compound 365]
35 | < 50 |  | COc1ccc(-c2n[nH]c3cc4c(cc23)CN([C@@H]2CCCN(Cc3ccc(F)cc3F)C2)C(=O)N4)cn1 [Compound 273]
36 | 250 to 1000 |  | Cc1cc(-c2n[nH]c3cc4c(cc23)CN([C@@H]2CCN(CC3CCCC3)C2)C(=O)N4)ccn1 [Compound 206]
37 | < 50 |  | Cc1cc(-c2n[nH]c3cc4c(cc23)CN([C@@H]2CCN(C(C)C(F)(F)F)C2)C(=O)N4)ccn1 (stereo partly drawn) [Compound 267]
38 |  | < 50 | Cc1cc(-c2n[nH]c3cc4c(cc23)CN([C@@H]2CCCN(C(C)c3ccccc3)C2)C(=O)N4)ccn1 (stereo partly drawn) [Compound 154]
39 | 50 to 250 |  | Cc1cc(-c2n[nH]c3cc4c(cc23)CN([C@@H]2CCCN(c3cccc(C)n3)C2)C(=O)N4)ccn1 [Compound 238]
40 | 50 to 250 |  | Cn1nccc1-c1n[nH]c2cc3c(cc12)CN([C@@H]1CCN(CC(F)(F)F)C1)C(=O)N3 [Compound 265]
41 | 250 to 1000 |  | Cc1cc(-c2n[nH]c3cc4c(cc23)CN([C@@H]2CN(CC(F)(F)F)C[C@H]2C(C)(C)C)C(=O)N4)ccn1 [Compound 329]
42 |  | < 50 | O=C1Nc2cc3[nH]nc(N4CCOCC4)c3cc2CN1Cc1cccc(Cl)c1 [Compound 78]
43 | 250 to 1000 |  | Cc1cc(-c2n[nH]c3cc4c(cc23)CN([C@@H]2CN(Cc3ccccc3)CC(F)(F)C2)C(=O)N4)ccn1 [Compound 263]
44 | < 50 |  | COc1cc(-c2n[nH]c3cc4c(cc23)CN([C@@H]2CCCN(Cc3ccc(F)cc3F)C2)C(=O)N4)ccn1 [Compound 271]
45 |  | < 50 | Cc1cc(-c2n[nH]c3cc4c(cc23)CN([C@@H]2CCCN(Cc3ccc(F)cc3)C2)C(=O)N4)ccn1 [Compound 151]
46 | < 50 |  | Cc1cc(-c2n[nH]c3cc4[nH]c(=O)c(C(CO)c5ccccc5)cc4cc23)ccn1 (stereo not drawn) [Compound 328]

Row | IC50 [1] [nM] | IC50 (In vitro ERK2 enzyme) [nM] | SMILES
47 | < 50 |  | CC(c1ccccc1)c1cc2cc3c(-c4ccnnc4)n[nH]c3cc2[nH]c1=O (stereo not drawn) [Compound 323]
48 |  | < 50 | Cc1cc(-c2n[nH]c3cc4c(cc23)CN([C@@H]2CCCN(CC(F)(F)F)C2)C(=O)N4)ccn1 [Compound 193]
49 | 250 to 1000 |  | Cn1nccc1-c1n[nH]c2cc3c(cc12)CN([C@@H]1CN(CC(F)(F)F)C[C@H]1c1ccccc1)C(=O)N3 [Compound 350]
50 |  | < 50 | COc1ncc(-c2n[nH]c3cc4c(cc23)CN(CCCN)C(=O)N4)cn1 [Compound 112]
51 |  | < 50 | Cc1cc(-c2n[nH]c3cc4c(cc23)CN(Cc2ccc(Cl)cc2)C(=O)N4)ccn1 [Compound 14]
52 | < 50 |  | Cc1cc(-c2n[nH]c3cc4c(cc23)CN(C2CN(Cc3ccccc3)CC(F)(F)C2)C(=O)N4)ccn1 (stereo not drawn) [Compound 200]
53 | < 50 |  | Cc1cc(-c2n[nH]c3cc4c(cc23)CN(C2CCC(F)(F)CC2)C(=O)N4)ccn1 [Compound 224]
54 |  | < 50 | C[C@H](c1ccc(Cl)cc1)N1Cc2cc3c(-c4ccnnc4)n[nH]c3cc2NC1=O [Compound 115]
55 |  | < 50 | COc1ccc(-c2n[nH]c3cc4c(cc23)CN(Cc2cccc(Cl)c2)C(=O)N4)cn1 [Compound 75]
56 | < 50 |  | Cc1ncccc1-c1n[nH]c2cc3[nH]c(=O)c(C(C)c4ccccc4)cc3cc12 (stereo not drawn) [Compound 335]
57 | < 50 |  | CC(c1ccccc1)c1cc2cc3c(-c4ccnc(N)c4)n[nH]c3cc2[nH]c1=O (stereo not drawn) [Compound 344]
58 |  | < 50 | O=C1Nc2cc3[nH]nc(-c4ccncc4)c3cc2CN1Cc1ccccc1 [Compound 1, 6-benzyl-3-(pyridin-4-yl)-1,5,6,8-tetrahydro-7H-pyrazolo[4,3-g]quinazolin-7-one]
59 | 250 to 1000 |  | COc1ccc(-c2n[nH]c3cc4c(cc23)CN([C@H]2CCCN(Cc3ccc(F)cc3F)C2)C(=O)N4)cn1 [Compound 369]
60 |  | > 1000 | COc1ncc(-c2n[nH]c3cc4c(cc23)CN(C)CC(=O)N4)cn1 [Compound 109]
61 | < 50 |  | Cc1cc(-c2n[nH]c3cc4c(cc23)CN([C@@H]2CN(C(C)C)C[C@H]2c2ccccc2)C(=O)N4)ccn1 (racemic) [Compound 279]
62 |  | < 50 | O=C1Nc2cc3[nH]nc(-c4ccnnc4)c3cc2CN1Cc1cc(F)cc(F)c1 [Compound 127]
63 | 50 to 250 |  | Cc1cc(-c2n[nH]c3cc4c(cc23)CN([C@@H]2CN(C3CCOCC3)C[C@H]2c2ccccc2)C(=O)N4)ccn1 (mixture of isomers) [Compound 359]
64 |  | < 50 | Cc1cc(-c2n[nH]c3cc4c(cc23)CN(CCNCc2cccc(Cl)c2)C(=O)N4)ccn1 [Compound 176]
65 | < 50 |  | COc1ccc(-c2n[nH]c3cc4c(cc23)CN([C@@H]2CN(CC(F)(F)F)C[C@H]2c2ccccc2)C(=O)N4)cn1 [Compound 374]
66 |  | < 50 | Cc1cc(-c2n[nH]c3cc4c(cc23)CN([C@@H]2CCCN(CCC(C)C)C2)C(=O)N4)ccn1 [Compound 169]
67 |  | < 50 | Cc1cc(-c2n[nH]c3cc4c(cc23)CN([C@@H]2CCCN(Cc3ccccc3Cl)C2)C(=O)N4)ccn1 [Compound 158]
68 |  | 50 to 250 | N#Cc1ccc(-c2n[nH]c3cc4c(cc23)CN(Cc2cccc(Cl)c2)C(=O)N4)cc1 [Compound 94]
69 |  | < 50 | Cc1cc(-c2n[nH]c3cc4c(cc23)CN([C@@H]2CCCN(CCc3ccccc3)C2)C(=O)N4)ccn1 [Compound 145]
